In ChEMBL document CHEMBL4266055, “Optimization of Phenyl Indole Inhibitors of the AAA+ ATPase p97” (ACS Med Chem Lett, 2018):
Values after ≈ are worked out from the molar mass of the structure shown.

Assays:
[1] = Aqueous solubility of the compound in pH 7.4 buffer by UV/Vis spectroscopic analysis; type: physicochemical
[2] = Half life in human liver microsomes at 10 uM in presence of NADPH/G6PD by LC-MS/MS analysis; type: ADME, microsome
[3] = Half life in mouse liver microsomes at 10 uM in presence of NADPH/G6PD by LC-MS/MS analysis; type: ADME, microsome
[4] = target: T1, Transitional endoplasmic reticulum ATPase (Homo sapiens, UniProt P55072)
Description: Inhibition of recombinant full length human p97 (1 to 806 residues) expressed in Escherichia coli Rosetta 2 (DE3) using 100 uM ATP as substrate after 90 mins by luminescence assay

[5] = target: T1, Transitional endoplasmic reticulum ATPase; assay: Inhibition of recombinant full length human p97 (1 to 806 residues) expressed in Escherichia coli Rosetta 2 (DE3) using 20 uM ATP as substrate after 90 mins by luminescence assay
[6] = target: T1, Transitional endoplasmic reticulum ATPase; assay: Inhibition of human p97 in human HeLa cells harboring UbG76V-GFP assessed as accumulation of UbG76V after 1 hr by microscopic analysis; type: cell-based
[7] = tested on: Panel NCI-60 (60 carcinoma cell lines); assay: Growth inhibition of human NCI60 cells after 48 hrs by sulforhodamine B assay; type: functional
[8] = target: T1, Transitional endoplasmic reticulum ATPase; assay: Inhibition of human p97 in human HeLa cells harboring UbG76V-GFP assessed as accumulation of UbG76V after 6 hrs by microscopic analysis; type: cell-based

T1 sequence (P55072 whole entry, the tested form may be a part): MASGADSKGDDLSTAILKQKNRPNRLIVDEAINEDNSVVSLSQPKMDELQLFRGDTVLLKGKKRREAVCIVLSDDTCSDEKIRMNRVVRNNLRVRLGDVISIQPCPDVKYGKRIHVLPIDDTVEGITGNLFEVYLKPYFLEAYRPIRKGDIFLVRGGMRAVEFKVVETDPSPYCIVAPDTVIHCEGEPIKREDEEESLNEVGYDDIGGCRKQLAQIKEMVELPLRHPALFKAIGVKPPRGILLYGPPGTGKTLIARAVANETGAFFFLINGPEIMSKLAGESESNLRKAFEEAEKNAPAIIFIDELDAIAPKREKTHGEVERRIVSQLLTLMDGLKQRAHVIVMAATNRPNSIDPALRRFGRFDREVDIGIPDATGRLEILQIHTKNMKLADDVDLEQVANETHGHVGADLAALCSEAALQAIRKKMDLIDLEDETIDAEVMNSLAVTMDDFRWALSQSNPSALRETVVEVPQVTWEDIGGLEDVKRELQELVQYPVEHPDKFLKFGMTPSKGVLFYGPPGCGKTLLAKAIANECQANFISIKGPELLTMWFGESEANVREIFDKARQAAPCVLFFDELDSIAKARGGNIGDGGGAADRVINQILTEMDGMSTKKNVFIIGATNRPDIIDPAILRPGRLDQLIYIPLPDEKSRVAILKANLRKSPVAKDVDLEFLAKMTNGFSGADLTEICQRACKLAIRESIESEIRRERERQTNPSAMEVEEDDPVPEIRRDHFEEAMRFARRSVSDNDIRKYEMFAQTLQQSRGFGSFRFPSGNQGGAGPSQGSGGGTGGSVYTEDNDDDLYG

Compound	IC50 [4] [µM]	further results
Cc1cc(OCc2nnc(SC3CCCC3)n2-c2cccnc2)ccc1-c1ccc(S(C)(=O)=O)cc1		solubility [1]: 86 µM (≈ 44.8 µg/mL); t1/2 [2]: < 0.167 h; t1/2 [3]: < 0.167 h
CC(C)N1CCN(C(=O)CCNC2CCN(c3cccc(-c4cc5cc(F)ccc5[nH]4)c3)CC2)CC1	0.19	
Cn1ncnc1CCNC1CCN(c2cccc(-c3cc4ccccc4[nH]3)c2)CC1	0.99	IC50 [5]: 2.4 µM
CC(C)N1CCN(C2(CNC3CCN(c4cccc(-c5cc6cc(F)ccc6[nH]5)c4)CC3)COC2)CC1	0.09	
CC(C)N1CCN(CCNC2CCN(c3cccc(-c4cc5cc(F)ccc5[nH]4)c3)CC2)CC1	0.07	
c1ccc(CCNC2CCN(c3cccc(-c4cc5ccccc5[nH]4)c3)CC2)nc1	1.05	
CN1CCN(C2(CNC3CCN(c4cccc(-c5cc6cc(F)ccc6[nH]5)c4)CC3)CCC2)CC1	0.02	EC50 [6]: 15 µM; solubility [1]: 330 µM (≈ 157 µg/mL); t1/2 [2]: 7.92 h; GI50 [7]: 2 µM; t1/2 [3]: 4.62 h; EC50 [8]: > 40 µM
c1ccc(CNC2CCN(c3cccc(-c4cc5ccccc5[nH]4)c3)CC2)nc1	1.06	
CN1CCN(CCNC2CCN(c3cccc(-c4cc5ccccc5[nH]4)c3)CC2)CC1	0.28	
CN(C)CCNC1CCN(c2cccc(-c3cc4cc(F)ccc4[nH]3)c2)CC1	0.8	
c1ccc(CCNC2CCN(c3cccc(-c4cc5ccccc5[nH]4)c3)CC2)cc1	2.61	
CC(C)(C)N1CCN(CCNC2CCN(c3cccc(-c4cc5ccccc5[nH]4)c3)CC2)CC1	0.21	
CC(C)N1CCC(NC2CCN(c3cccc(-c4cc5cc(F)ccc5[nH]4)c3)CC2)CC1	0.05	EC50 [6]: 19 µM; solubility [1]: 380 µM (≈ 165 µg/mL); t1/2 [2]: 9.48 h; GI50 [7]: 1.58 µM; t1/2 [3]: 6.43 h; EC50 [8]: > 40 µM
CC(C)N1CCN(C2CCN(c3cccc(-c4cc5cc(F)ccc5[nH]4)c3)CC2)CC1	4.76	
CC(C)N1CCN(CCCNC2CCN(c3cccc(-c4cc5ccccc5[nH]4)c3)CC2)CC1	0.38	
CC(C)N1CCN(C2(CNC3CCN(c4cccc(-c5cc6cc(F)ccc6[nH]5)c4)CC3)CCC2)CC1	0.1	
CCN1CCN(CCNC2CCN(c3cccc(-c4cc5ccccc5[nH]4)c3)CC2)CC1	0.2	
c1cc(-c2cc3ccccc3[nH]2)cc(N2CCC(NCCN3CCNCC3)CC2)c1	0.33	
